From patent US20240424113A1, “CONJUGATES COMPRISING ANTIFUNGALS AND HEAT SHOCK PROTEIN 90 (HSP90) INHIBITORS AND METHODS OF USE THEREOF” (Bright Angel Therapeutics Inc., priority 2021, published 2024)
pKd: −log10 of the molar value. In brackets after ≈: the same amount, converted by molar mass.

Experiments:
HepG2 cells = assay: Mammalian cell toxicity (Cell Titer-Glo); format: cell-based
Protocol: Mammalian Cell Toxicity. HepG2 cells were seeded overnight at 500 cells/well in 384-well plate, then incubated with compounds (10-point concentration titration) for 48 h. Cell Titer-Glo® reagent ([…]) was added to each well and after 10-minute incubation at room temperature the luminescent signal was measured using an Envision plate reader (Perkin Elmer).

[1] = biological target: Hsp90 Nuclear Binding Domain (NBD) (Aspergillus fumigatus, UniProt P40292); assay: Surface Plasmon Resonance (SPR) binding, A. fumigatus Hsp90 NBD; conditions: biotinylated Hsp90 NBD on streptavidin chip, 25° C., 1:1 binding model; NB undefined
Sequence of Hsp90 Nuclear Binding Domain (NBD) (Aspergillus fumigatus, UniProt P40292) (P40292 whole entry, looked up, the tested form may be a part): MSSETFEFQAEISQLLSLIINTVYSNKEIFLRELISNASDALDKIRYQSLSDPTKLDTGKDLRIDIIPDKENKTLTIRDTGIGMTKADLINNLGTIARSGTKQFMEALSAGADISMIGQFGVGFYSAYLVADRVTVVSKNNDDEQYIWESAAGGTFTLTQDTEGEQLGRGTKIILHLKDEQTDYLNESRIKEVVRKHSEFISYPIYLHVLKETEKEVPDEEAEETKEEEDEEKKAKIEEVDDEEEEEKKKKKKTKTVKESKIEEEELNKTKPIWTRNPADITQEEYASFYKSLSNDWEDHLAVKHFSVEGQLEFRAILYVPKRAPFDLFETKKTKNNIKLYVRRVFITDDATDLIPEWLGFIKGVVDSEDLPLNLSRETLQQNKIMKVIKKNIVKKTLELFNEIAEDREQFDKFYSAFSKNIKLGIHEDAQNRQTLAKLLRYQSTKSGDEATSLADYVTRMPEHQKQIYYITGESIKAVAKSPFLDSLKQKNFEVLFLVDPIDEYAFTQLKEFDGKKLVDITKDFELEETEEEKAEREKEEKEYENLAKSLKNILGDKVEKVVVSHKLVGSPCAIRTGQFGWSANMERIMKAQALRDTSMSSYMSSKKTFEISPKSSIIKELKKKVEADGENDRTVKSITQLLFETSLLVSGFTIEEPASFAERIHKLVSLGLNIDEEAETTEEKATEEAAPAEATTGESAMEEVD
Outline: (§1)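 Biacore S200 at 25° C; AviTag-biotinylated recombinant Hsp90 NBD captured on streptavidin chip at 2000-2500 RU. Compound dilution series run in HBS-P pH 7.4 with 2% DMSO at 40 μL/min, 60 s association and 600 s dissociation. Sensorgrams fitted to a 1:1 binding model.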

CaCl2 = assay: Antifungal sensitivity testing (broth microdilution MIC); format: cell-based; conditions: 96-well broth microdilution
Outline: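 Broth microdilution MIC per a modified published protocol; compounds dissolved in DMSO, fluconazole in water; duplicates in at least two independent experiments. Fungicidal activity checked by spotting MIC-plate cultures onto YPD agar, read after 24 h at 30° C.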

[2] = biological target: Hsp90 Nuclear Binding Domain (NBD) (Candida albicans (strain SC5314 / ATCC MYA-2876) (Yeast), UniProt P46598); assay: Surface Plasmon Resonance (SPR) binding, C. albicans Hsp90 NBD; conditions: biotinylated Hsp90 NBD on streptavidin chip, 25° C., 1:1 binding model
Sequence of Hsp90 Nuclear Binding Domain (NBD) (Candida albicans (strain SC5314 / ATCC MYA-2876) (Yeast), UniProt P46598) (P46598 1-218 limits assumed): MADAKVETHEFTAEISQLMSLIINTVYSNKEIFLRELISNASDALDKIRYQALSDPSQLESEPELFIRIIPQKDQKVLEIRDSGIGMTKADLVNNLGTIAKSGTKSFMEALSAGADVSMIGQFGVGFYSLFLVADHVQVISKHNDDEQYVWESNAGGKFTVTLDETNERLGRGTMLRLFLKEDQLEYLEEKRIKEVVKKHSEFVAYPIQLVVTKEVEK
Outline: as §1

Structure (SMILES) | HepG2 MIC50 (HepG2 cells; Table 5, 48 h incubation) | HepG2 MIC50 (HepG2 cells; Table 6, 48 h incubation) | pKd [1] | MIC50 (CaCl2; Table 4) | MIC50 (CaCl2; Table 6) | pKd [2]
Nc1nc2sc(C(=O)NC3CCN(C[C@](O)(Cn4cncn4)c4ccc(F)cc4F)CC3)cc2n(-c2ccc3c(c2)N(c2ccccc2)CCC3)c1=O [Compound I-21, (S)-3-amino-N-(1-(2-(2,4-difluorophenyl)-2-hydroxy-3-(1H-1,2,4-triazol-1-yl)propyl)piperidin-4-yl)-2-oxo-1-(1-phenyl-1,2,3,4-tetrahydroquinolin-7-yl)-1,2-dihydrothieno[2,3-b]pyrazine-6-carboxamide] | >50 µM | >50 µM | 7.43 | 0.085 µM (≈ 0.0627 µg/mL) | 0.09 µM (≈ 0.0664 µg/mL) | 8.17
CC(F)(F)COC(=O)N1Cc2nc(N)nc(-c3c(Cl)cc(Cl)cc3OCCC(O)(Cn3cncn3)c3ccc(F)cc3F)c2C1 (centres unmarked) [Compound I-115, 2,2-difluoropropyl-2-amino-4-(2,4-dichloro-6-(3-(2,4-difluorophenyl)-3-hydroxy-4-(1H-1,2,4-triazol-1-yl)butoxy)phenyl)-5,7-dihydro-6H-pyrrolo[3,4-d]pyrimidine-6-carboxylate] | – | >20 µM | 5.93 | 6.5 µM (≈ 4.36 µg/mL) | 6.5 µM (≈ 4.36 µg/mL) | 5.92
